Experimental data as given in patent US20220152031A1, “PYRIDAZINONES AND METHODS OF USE THEREOF” (Goldfinch Bio, Inc., priority 2019, published 2022).
pIC50: −log10 of the molar value. Like-named read-outs stand apart in the source and are kept apart here.

Assays:
[1] = target: T1, TRPC4 (Homo sapiens, UniProt Q9UBN4); assay: TRPC4 activity assay (FLIPR calcium fluorescence, HEK-TREx hTRPC4 cells); format: cell-based; conditions: Table 5, HEK-TREx hTRPC4; read-out: TRPC4 FLIPR IC50
T1 construct: expressed in transfected cells
T1 sequence (Q9UBN4 1-982 isoform Q9UBN4-5): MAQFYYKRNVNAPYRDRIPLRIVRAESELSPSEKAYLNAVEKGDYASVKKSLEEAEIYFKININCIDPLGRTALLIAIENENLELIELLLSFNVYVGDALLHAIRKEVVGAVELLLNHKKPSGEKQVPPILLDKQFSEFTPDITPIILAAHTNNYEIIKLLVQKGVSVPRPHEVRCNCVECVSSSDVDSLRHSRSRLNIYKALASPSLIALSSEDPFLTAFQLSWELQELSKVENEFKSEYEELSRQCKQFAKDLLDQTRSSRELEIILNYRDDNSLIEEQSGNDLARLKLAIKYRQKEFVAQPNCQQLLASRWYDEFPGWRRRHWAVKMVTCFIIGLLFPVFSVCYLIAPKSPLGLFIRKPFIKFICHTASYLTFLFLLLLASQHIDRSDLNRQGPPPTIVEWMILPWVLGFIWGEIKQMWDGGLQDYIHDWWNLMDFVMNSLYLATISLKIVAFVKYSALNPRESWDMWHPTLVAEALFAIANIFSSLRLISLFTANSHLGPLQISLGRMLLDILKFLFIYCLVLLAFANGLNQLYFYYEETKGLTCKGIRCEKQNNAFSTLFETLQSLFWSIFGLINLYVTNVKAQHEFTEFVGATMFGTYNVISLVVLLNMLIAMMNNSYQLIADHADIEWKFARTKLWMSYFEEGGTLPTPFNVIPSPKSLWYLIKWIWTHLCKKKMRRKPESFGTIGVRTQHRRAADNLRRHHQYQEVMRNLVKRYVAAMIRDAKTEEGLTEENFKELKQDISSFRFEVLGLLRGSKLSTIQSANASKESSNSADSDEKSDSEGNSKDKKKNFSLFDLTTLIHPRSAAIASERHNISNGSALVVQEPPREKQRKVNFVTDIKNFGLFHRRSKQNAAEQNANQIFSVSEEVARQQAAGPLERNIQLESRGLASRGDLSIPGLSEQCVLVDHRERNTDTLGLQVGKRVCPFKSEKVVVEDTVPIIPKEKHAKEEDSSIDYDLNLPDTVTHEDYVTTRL
Procedure: (§1) ICLN-1694 cells (HEK-TREx hTRPC4) expressing TRPC4 were generated as follows. Commercially available HekTrex-293 cells were seeded at 0.7×10^6 cells/well in a 1×6-well plate 24 hrs prior to transfection using 2 mL cell growth media containing no antibiotics (lx DMEM/high glucose (Hyclone #SH30022.02); 10% fetal bovine serum (Sigma) 2 mM sodium pyruvate, 10 mM HEPES). […] On day 2, 2 μg of plasmid DNA plus 6 μl of Xtreme-GENE HP reagent in Optimem (200 μl total volume) was prepared and incubated for 15 min at room temperature. This plasmid solution was then gently overlayed dropwise onto each well and the plate was gently swirled to mix complex with the media for approximately 30 seconds. Transfected cells were incubated at 37° C. in a 10% CO2 incubator for 24 hrs. The transfected cells were harvested and transferred into 2×150 mm dishes containing cell growth media with no antibiotics at 37° C.
(§2) The next day selection was initiated to generate a stable pool by adding cell growth media containing 150 μg/mL Hygromycin and 5 μg/mL Blasticidin and cells were allowed to grow. Media with the selection agent was changed every 1-2 days as needed to remove dead cells. After 7 days, the hygromycin concentration was reduced to 75 μg/mL and cells growth was allowed to continue.
(§3) Single clones were selected as follows. The stable pool was diluted to 10 cells/mL and seeded (100 μl/well) into 24×96 well plates (˜1 cell/well) and allowed to grow for 7 days in cell growth media. Fresh media (100 μl) was added and the cells allowed to grow for another 1-2 weeks and then stored frozen or used immediately.
(§4) 10-point dose response curves were generated using the Echo-550 acoustic dispenser. Compound source plates were made by serially diluting compound stocks to create 10 mM, 1 mM, and 0.1 mM solutions in DMSO into Echo-certified LDV plates. The Echo then serially spotted 100% DMSO stock solutions into source dose response plates to generate a 4-fold dilution scheme. 100% DMSO was added to the spotted dose response plates to bring the final volume to 5 μl. 300 nl of the dose response stock plate was then spotted into pre-incubation and stimulation assay plates. 50 μl of pre-incubation buffer and 100 μl of stimulation buffer was then added to the plates resulting in a final assay test concentration range of 30 μM to 0.0001 μM with a final DMSO concentration of 0.3%.
ICLN-1694 cells (HEK-TREx hTRPC4) were plated onto 384 well, black pdl-coated microplates and maintained in cell growth media supplemented with 1 μg/mL tetracycline the day prior to use for experiments. TRPC4 expression was induced by the application of 1 μg/mL tetracycline at the time of plating. […] Cells were incubated at room temperature, protected from light, for 60-90 minutes. After the incubation period, the dye was removed and replaced with 10 μl of EBSS. Cell, pre-incubation and stimulation plates were loaded onto the FLIPR-II and the assay was initiated. The FLIPR measured a 10 second baseline and then added 10 μl of 2× compounds (or controls). Changes in fluorescence were monitored for an additional 5 minutes. After a 5 minute pre-incubation, 20 μl of 2× Englerin A (with 1× compound or controls) was added to the cell plate. The final Engerlin A stimulation concentration in the assay was 100 nM. After the Englerin A addition, changes in fluorescence were monitored for an additional 5 minutes.
Compound modulation of TRPC4 calcium response was determined as follows. After the Englerin A, fluorescence was monitored for a 5-minute period. The maximum relative fluorescence response (minus the control response of 1 μM of an internal control compound known to maximally block TRPC4 calcium response, the “REF INHIB” in the formula below) was captured and exported from the FLIPR.
(§5) Compound effect is calculated as % inhibition using the following formula: […]
(§6) wherein “RFU” is the relative fluorescent units.

[2] = target: T2, TRPC5 (Homo sapiens, UniProt Q9UL62); assay: TRPC5 activity assay (FLIPR calcium fluorescence, HEK-TREx hTRPC5 cells); format: cell-based
T2 construct: expressed in transfected cells
T2 sequence (Q9UL62 1-973): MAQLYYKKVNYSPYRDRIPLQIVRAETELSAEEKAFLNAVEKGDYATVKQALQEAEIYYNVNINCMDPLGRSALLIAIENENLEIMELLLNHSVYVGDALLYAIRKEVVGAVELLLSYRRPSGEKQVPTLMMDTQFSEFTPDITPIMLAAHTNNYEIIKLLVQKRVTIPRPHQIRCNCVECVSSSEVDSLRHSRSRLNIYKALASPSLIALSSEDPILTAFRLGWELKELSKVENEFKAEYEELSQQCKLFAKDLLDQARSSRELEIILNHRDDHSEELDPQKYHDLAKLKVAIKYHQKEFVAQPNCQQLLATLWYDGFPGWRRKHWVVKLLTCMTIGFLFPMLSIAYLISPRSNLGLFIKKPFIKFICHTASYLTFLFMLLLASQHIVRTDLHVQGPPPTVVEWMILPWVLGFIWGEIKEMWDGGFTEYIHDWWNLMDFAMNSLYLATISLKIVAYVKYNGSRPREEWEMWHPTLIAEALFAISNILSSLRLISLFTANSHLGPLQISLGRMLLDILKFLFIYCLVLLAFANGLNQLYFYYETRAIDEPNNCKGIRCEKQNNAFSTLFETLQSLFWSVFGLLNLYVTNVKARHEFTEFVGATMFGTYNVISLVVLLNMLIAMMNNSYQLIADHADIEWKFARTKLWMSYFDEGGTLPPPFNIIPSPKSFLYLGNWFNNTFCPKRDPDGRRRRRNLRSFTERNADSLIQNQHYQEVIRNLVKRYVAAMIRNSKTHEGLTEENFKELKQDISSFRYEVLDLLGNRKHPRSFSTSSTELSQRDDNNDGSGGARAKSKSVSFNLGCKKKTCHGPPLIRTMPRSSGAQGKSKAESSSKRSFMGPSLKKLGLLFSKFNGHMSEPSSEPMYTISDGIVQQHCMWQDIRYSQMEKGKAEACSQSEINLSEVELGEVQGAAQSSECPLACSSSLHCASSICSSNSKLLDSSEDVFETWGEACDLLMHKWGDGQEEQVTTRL
Procedure: as §1, with “ICLN-1633” for “ICLN-1694”, “hTRPC5)” for “hTRPC4)”, “TRPC5” for “TRPC4”
as §2, §3
as §4, with “Echo certified” for “Echo-certified”
Human ICLN-1633 cells expressing were plated onto 384 well, black PDL-coated microplates and maintained in TRPC5 growth media the day prior to use for experiments. TRPC5 expression was induced by the application of 1 μg/mL tetracycline at the time of plating. […] Cells are incubated at room temperature, protected from light, for 60-90 minutes. After the incubation period, the dye is removed and replaced with 10 μl of EBSS. Cell, pre-incubation and stimulation plates are loaded onto the FLIPR-II and the assay is initiated. The FLIPR measures a 10 second baseline and then adds 10 μl of 2× compounds (or controls). Changes in fluorescence are monitored for an additional 5 minutes. After the 5 minute pre-incubation, 20 μl of 2× Riluzole (with 1× compound or controls) is added to the cell plate. The final Riluzole stimulation concentration in the assay is 30 μM. After the Riluzole addition, changes in fluorescence are monitored for an additional 5 minutes.
Compound modulation of TRPC5 calcium response was determined as follows. After the Englerin A, fluorescence was monitored for a 5-minute period. The maximum relative fluorescence response (minus the control response of 1 μM of an internal control compound known to maximally block TRPC5 calcium response, the “REF INHIB” in the formula below) was captured and exported from the FLIPR.
as §5, §6

[3] = HEK-TREx hTRPC5 cells, FLIPR, 30 μM Riluzole stimulation, read-out: TRPC5

| pIC50 [2, 3] | Structure (SMILES) | further results |
| --- | --- | --- |
|  | CC(c1ccc(F)cc1C(F)(F)F)N1C[C@@H](C)N(c2cn[nH]c(=O)c2Cl)CC1=O (single isomer, unassigned) [MD] | pIC50 [1]: 6.00 to 11.00 |
| > 7.30 | O=c1[nH]ncc(N2CCc3c(nc(CO)nc3Oc3ccc(F)cc3C(F)F)C2)c1Cl [Compound 134, 4-chloro-5-[4-[2-(difluoromethyl)-4-fluorophenoxy]-2-(hydroxymethyl)-5H,6H,7H,8H-pyrido[3,4-d]pyrimidin-7-yl]-2,3-dihydropyridazin-3-one] |  |
| > 7.30 | O=c1[nH]ncc(N2CCc3c(ncnc3N(CCO)c3ccc(F)cc3C(F)(F)F)C2)c1Cl [Compound 136, 4-Chloro-5-(4-[[4-fluoro-2-(trifluoromethyl)phenyl](2-hydroxyethyl)amino]-5H,6H,7H,8H-pyrido[3,4-d]pyrimidin-7-yl)-2,3-dihydropyridazin-3-one] |  |
| 6.30 to 7.30 | Cn1c2c(c(Oc3ccc(F)cc3C(F)(F)F)nc1=O)CCN(c1cn[nH]c(=O)c1Cl)C2 [Compound 138, 4-Chloro-5-[4-[4-fluoro-2-(trifluoromethyl)phenoxy]-1-methyl-2-oxo-1H,2H,5H,6H,7H,8H-pyrido[3,4-d]pyrimidin-7-yl]-2,3-dihydropyridazin-3-one] |  |
| 6.30 to 7.30 | COc1nc2c(c(Oc3ccc(F)cc3C(F)(F)F)n1)CCN(c1cn[nH]c(=O)c1Cl)C2 [Compound 139, 4-Chloro-5-[4-[4-fluoro-2-(trifluoromethyl)phenoxy]-2-methoxy-5H,6H,7H,8H-pyrido[3,4-d]pyrimidin-7-yl]-2,3-dihydropyridazin-3-one] |  |
| 6.30 to 7.30 | O=c1[nH]ncc(N2CCc3c(Oc4ccc(F)cc4C(F)(F)F)ccnc3C2)c1Cl [Compound 140, 4-chloro-5-[4-[4-fluoro-2-(trifluoromethyl)phenoxy]-5,6,7,8-tetrahydro-1,7-naphthyridin-7-yl]-2,3-dihydropyridazin-3-one] |  |
|  | CCc1ncccc1[C@@H](C)n1nnc2c1CCN(c1cn[nH]c(=O)c1Cl)C2 [MS, 4-chloro-5-[1-[(1R)-1-(2-ethylpyridin-3-yl)ethyl]-1H,4H,5H,6H,7H-[1,2,3]triazolo[4,5-c]pyridin-5-yl]-2,3-dihydropyridazin-3-one] | pIC50 ([2]; Table 4, HEK-TREx hTRPC5, read-out: TRPC5-FLIPR IC50): 6.00 to 11.00; pIC50 ([2]; Table 7, HEK-TREx hTRPC5, read-out: TRPC5-FLIPR IC50): 6.00 to 11.00 |
